The values below come from patent US20230339978A1, “COMPOUNDS FOR PREVENTION OR TREATMENT OF NEURODEGENERATIVE DISORDERS” (1ST Biotherapeutics, Inc., priority 2020, published 2023).

Molecules are shown by their SMILES. Read-outs that look alike come from different tables or passages of the source.

The target in test [1] is T1, His-tagged recombinant human ABL1 (Homo sapiens (Human), UniProt P00519). Conditions: read-out: c-Abl IC50; 25 µM ATP, Abltide substrate, 30° C. 30-min.
Procedure: (§3) ADP-Glo assay kit was purchased from Promega. Magnesium chloride (MgCl2), bovine serum albumin (BSA), ethylene glycol-bis(β-aminoethyl ether)-N,N,N′,N′-tetraacetic acid (EGTA), tween-20, 1,4-dithiothreitol (DTT) and dimethyl sulfoxide (DMSO) were purchased from Sigma-Aldrich. HEPES buffer was purchased from Gibco. ABL1 kinase and Abltide were purchased from Signalchem.
(§4) c-Abl kinase activity was measured by Promega’s ADP-Glo ® Assay. In this assay, His-tagged recombinant human ABL1 (0.25 ng/µl) is incubated with 5 µL of compounds (0.5% DMSO), 5 µL of Abltide (0.01 µg/µl) and 5 µL of ATP (25 µM) in buffer (50 mM HEPES,7.5; 10 mM MgCl2; 1 mM EGTA; 0.05% BSA; 0.01% Tween-20; 2 mM DTT.). The assay was started by incubating the reaction mixture in a 96-well plate at 30° C. for 30-min. After the incubation, 25 µL ADP-Glo reagent was added and the reaction was incubated at room temperature for 40-min to stop the reaction and degrade residual ATP. The ADP product was then converted to ATP by adding 50 µL per well of detection reagent. Luminescence was detected after 30-min room temperature incubation with the Molecular device I3X plate reader. The IC50 values were calculated from a series of percent inhibition values determined at a range of inhibitor concentration using software routines as implemented in the GraphPad Prism 7 software and Sigma Plot 13.0.
A further test concerns the target LRRK2 G2019S (Homo sapiens (Human), UniProt Q5S007, G2019S). The test is described as follows: LRRK2 G2019S kinase assay (Adapta). The test is classed as biochemical. Particulars: 100 µM ATP, LRRKtide substrate; read-out: LRRK2_G2019S IC50. As to the method:
(§1) LRRK2 and LRRK2 G2019S Kinase Assay
(§2) The LRRK2 and LRRK2 G2019S kinase assays were performed using the AdaptaTM technology in ThermoFisher Scientific. This experiment was carried out according to the supplier’s protocol. Briefly, assay conditions were as follows. The mixture of substrate (LRRKtide) and each kinase was prepared in 50 mM Tris pH 8.5, 0.01% BRIJ-35, 10 mM MgCl2, 1 mM EGTA, 0.02% NaN3. Assays were performed in the presence of 70 µM ATP and 100 µM ATP (KmATP) in LRRK2 and LRRK2 G2019S, respectively. The reaction was progressed at room temperature for 1 hour. Upon completion of kinase reaction, 5 µL of Detection Mix was added and after 60 min incubation time, the emission ratio of 665/615 nm was calculated

The target in test [2] is GST-tagged recombinant human RIPK2 (Homo sapiens (Human), UniProt O43353). Briefly: RIP2 Kinase Assay (ADP-Glo). The test is classed as biochemical. Particulars: 25 µM ATP, MBP substrate, 30° C. 60 minutes. On the technique in general: ADP-Glo first removes unused ATP, then detects ADP through luciferase.
Procedure: GST-tagged recombinant human RIPK2(25 ng) is incubated with 5 µL of compounds (0.5% DMSO), 5 µL of MBP (0.5 µg/µl) and 5 µL of ATP (25 µM) in buffer (40 mM Tris, 7.5; 20 mM MgCl2; 0.1 mg/ml BSA; 50 µM DTT). The assay was started by incubating the reaction mixture in a 96-well plate at 30° C. for 60 minutes. After the incubation, 25 µL ADP-Glo reagent was added, and the reaction was incubated at 30° C. for 40 minutes to stop the reaction and degrade residual ATP. The ADP product was then converted to ATP by adding 50 µL per well of detection reagent. Luminescence was detected after 30 minutes room temperature incubation with the Molecular device I3X plate reader. The IC50 values were calculated from a series of percent inhibition values determined at a range of inhibitor concentration using software routines as implemented in the GraphPad Prism 7 software or SigmaPlot 13.0.
Test [3] relates to IL-6 secretion in BV-2 cell. The test is described as follows: IL-6 Secretion in BV-2 Cell (L18-MDP stimulated, ELISA). The test is classed as cell-based. Particulars: BV-2 mouse microglia cells, 10 µg/ml L18-MDP, 24 hr. As to the method: IL-6 Secretion in BV-2 Cell
BV-2 mouse microglia cells were kindly provided from Dr. Bae in Korea Institute of Science and Technology (KIST). BV-2 cells were thawed and suspended in Dulbecco’s modified eagle medium (DMEM) supplemented with 10% fetal bovine serum (FBS) and 1% Penicillin/Streptomycin. Cells were seeded into 96 well plates at 2X10^4 cells/well and allowed to attach for 24 hr. On the day of the experiment, various concentration of compounds were treated, and cells were stimulated with 10 µg/ml L18-MDP. After 24 hr incubation, supernatant was collected for cytokine assay.
Absorbance at 450 nm was measured using SpectraMax I3X microplate reader (Molecular Device). Values of media-only wells were subtracted and % inhibition for each compound concentration relative to the DMSO/L18-MDP-treated controls (100%) was calculated.
Background: ELISA stands for enzyme-linked immunosorbent assay.

In another test the target is LRRK2 (WT) (Homo sapiens (Human), UniProt Q5S007). The test is described as follows: LRRK2 kinase assay (Adapta). It is filed as biochemical. Particulars: 70 µM ATP, LRRKtide substrate. As to the method: as §1, §2
Test [4] addresses T1, His-tagged recombinant human ABL1. The test is described as follows: biochemical.
Procedure: as §3, §4

Chain of GST-tagged recombinant human RIPK2 (O43353 whole entry): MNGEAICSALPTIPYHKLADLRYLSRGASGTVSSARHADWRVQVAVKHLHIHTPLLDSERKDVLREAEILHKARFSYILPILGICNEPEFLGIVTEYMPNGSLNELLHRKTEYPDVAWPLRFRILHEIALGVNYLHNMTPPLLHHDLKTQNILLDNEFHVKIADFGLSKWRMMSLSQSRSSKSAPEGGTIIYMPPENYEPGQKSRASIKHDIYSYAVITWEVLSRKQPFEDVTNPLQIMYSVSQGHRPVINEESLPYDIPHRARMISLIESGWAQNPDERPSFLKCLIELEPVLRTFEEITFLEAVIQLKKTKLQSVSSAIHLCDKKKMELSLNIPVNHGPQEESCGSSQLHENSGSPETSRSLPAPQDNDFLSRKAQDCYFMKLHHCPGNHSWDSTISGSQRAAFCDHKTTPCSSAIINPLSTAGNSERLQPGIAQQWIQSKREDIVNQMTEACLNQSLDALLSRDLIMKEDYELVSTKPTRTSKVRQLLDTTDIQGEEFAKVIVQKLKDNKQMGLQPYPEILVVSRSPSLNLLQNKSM
T1 sequence (P00519 whole entry): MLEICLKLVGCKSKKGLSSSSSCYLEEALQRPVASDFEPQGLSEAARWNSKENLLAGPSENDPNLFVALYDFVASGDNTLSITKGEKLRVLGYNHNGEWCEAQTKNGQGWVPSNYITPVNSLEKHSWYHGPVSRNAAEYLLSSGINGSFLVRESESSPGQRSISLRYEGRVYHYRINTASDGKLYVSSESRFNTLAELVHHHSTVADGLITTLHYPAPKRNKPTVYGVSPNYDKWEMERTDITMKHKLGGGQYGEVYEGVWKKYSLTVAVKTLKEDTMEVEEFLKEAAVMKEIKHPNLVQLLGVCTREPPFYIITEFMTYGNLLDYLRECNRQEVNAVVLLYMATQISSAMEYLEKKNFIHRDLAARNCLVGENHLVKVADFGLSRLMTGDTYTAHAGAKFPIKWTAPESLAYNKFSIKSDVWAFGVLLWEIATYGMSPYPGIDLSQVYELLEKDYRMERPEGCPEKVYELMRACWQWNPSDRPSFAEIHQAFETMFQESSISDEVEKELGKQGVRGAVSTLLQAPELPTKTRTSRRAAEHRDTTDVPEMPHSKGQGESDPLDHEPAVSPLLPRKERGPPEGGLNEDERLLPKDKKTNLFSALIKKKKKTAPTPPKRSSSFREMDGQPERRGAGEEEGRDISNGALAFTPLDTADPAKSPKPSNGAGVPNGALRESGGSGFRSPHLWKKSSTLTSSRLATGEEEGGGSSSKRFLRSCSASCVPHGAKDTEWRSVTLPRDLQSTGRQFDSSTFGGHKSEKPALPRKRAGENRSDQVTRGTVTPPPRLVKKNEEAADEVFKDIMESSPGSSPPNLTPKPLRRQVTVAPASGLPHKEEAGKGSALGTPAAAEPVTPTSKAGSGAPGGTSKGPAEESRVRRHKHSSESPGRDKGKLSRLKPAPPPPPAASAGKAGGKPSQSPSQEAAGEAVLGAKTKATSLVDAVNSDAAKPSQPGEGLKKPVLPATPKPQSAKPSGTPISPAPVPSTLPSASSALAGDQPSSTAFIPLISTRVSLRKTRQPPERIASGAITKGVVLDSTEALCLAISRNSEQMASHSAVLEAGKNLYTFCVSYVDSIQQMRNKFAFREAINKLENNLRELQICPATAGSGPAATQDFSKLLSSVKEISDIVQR
Chain of LRRK2 (WT) (Q5S007 whole entry, species assumed): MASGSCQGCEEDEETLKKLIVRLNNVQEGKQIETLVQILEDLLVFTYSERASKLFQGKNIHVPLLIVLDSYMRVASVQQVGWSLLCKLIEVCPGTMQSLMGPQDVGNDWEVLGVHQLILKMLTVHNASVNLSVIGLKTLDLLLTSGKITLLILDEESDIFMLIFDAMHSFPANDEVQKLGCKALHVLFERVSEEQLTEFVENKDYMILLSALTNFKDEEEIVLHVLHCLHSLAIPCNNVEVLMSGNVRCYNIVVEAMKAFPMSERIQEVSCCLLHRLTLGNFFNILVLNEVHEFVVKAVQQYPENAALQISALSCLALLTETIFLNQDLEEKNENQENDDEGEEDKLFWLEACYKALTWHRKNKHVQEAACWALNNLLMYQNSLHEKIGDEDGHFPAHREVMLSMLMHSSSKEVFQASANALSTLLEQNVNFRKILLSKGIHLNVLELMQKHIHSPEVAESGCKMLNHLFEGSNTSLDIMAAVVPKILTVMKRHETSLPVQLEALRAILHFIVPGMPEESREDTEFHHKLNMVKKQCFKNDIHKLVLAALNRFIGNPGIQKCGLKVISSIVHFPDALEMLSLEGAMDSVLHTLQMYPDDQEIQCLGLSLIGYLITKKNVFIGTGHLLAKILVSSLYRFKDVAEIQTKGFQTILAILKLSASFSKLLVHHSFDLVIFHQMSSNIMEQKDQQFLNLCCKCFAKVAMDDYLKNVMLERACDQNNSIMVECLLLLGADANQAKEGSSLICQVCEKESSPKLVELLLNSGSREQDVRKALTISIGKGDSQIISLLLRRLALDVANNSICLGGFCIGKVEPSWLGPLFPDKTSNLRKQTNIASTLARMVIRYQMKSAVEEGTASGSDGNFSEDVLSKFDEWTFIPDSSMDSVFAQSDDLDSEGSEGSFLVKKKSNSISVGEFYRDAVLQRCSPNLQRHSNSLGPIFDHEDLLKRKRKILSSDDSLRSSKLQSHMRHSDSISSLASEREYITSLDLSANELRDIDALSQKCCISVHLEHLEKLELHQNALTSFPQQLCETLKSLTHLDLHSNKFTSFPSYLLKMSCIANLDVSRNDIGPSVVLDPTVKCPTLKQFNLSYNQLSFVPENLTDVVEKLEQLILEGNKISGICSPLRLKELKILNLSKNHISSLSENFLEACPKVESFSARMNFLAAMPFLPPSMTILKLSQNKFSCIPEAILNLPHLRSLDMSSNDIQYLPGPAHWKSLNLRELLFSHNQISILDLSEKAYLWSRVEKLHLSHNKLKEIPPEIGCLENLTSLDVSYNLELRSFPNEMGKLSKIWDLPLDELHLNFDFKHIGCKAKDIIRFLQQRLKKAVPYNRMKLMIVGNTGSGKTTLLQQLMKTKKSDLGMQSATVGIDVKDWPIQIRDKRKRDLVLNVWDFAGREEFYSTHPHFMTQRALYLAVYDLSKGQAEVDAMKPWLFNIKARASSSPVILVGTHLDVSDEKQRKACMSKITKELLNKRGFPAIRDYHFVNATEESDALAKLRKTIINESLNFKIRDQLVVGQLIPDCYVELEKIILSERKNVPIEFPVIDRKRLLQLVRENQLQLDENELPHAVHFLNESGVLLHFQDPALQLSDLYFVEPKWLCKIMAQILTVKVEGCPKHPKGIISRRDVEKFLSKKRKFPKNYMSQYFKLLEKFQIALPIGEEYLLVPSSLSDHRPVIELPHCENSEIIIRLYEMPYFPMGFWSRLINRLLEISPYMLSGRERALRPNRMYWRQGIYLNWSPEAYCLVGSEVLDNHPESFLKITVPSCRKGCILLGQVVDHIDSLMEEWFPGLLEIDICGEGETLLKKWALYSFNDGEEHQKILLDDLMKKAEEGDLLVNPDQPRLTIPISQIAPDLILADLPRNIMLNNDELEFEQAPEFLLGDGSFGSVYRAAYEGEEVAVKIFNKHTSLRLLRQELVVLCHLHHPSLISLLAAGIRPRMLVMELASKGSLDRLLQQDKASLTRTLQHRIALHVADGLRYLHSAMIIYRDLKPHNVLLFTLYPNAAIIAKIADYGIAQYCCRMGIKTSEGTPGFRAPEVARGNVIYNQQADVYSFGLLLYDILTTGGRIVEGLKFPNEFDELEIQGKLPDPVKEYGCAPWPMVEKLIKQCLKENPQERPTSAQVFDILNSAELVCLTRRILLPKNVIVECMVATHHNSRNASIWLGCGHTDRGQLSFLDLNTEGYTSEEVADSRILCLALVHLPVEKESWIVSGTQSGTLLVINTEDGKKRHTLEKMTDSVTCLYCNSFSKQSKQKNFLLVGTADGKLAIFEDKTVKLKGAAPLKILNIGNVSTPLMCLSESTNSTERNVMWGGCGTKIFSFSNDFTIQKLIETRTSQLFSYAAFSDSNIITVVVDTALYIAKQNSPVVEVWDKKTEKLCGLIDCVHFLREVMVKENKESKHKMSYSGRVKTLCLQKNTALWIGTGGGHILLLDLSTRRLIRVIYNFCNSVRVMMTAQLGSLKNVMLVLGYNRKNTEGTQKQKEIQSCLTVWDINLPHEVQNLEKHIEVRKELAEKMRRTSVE
Chain of LRRK2 G2019S (Q5S007 whole entry G2019S): as the sequence (Q5S007 whole entry, species assumed) above, with G2019S counted along it

For the compound `O=C(Nc1cc2cc(-c3cnc4[nH]ccc4c3)ccn2n1)[C@@H]1C[C@@H]1F` [Example 1, (1S,2S)-N-(5-(1 H-pyrrolo[2,3-b]pyridin-5-yl)pyrazolo[1,5-a]pyridin-2-yl)-2-fluorocyclopropane-1-carboxamide], the IC50 (in general, the midpoint of a concentration-inhibition curve) was determined as 0.71 nM in test [1]; 28 nM on LRRK2 G2019S; 11 nM in test [2]; 187 nM in test [3]; 55.7 nM on LRRK2 (WT).
On the same counts, the results for `O=C(Nc1cc2cc(-c3cnc4[nH]ccc4c3Cl)ccn2n1)[C@@H]1C[C@@H]1F` [Example 2, (1S,2S)-N-(5-(4-chloro-1 H-pyrrolo[2,3-b]pyridin-5-yl)pyrazolo[1,5-a]pyridin-2-yl)-2-fluorocyclopropane-1-carboxamide] are 7.6 nM, 15 nM, 6.67 nM, 68.6 nM and 36.5 nM.
In the case of `Cc1c[nH]c2ncc(-c3ccn4nc(NC(=O)[C@@H]5C[C@@H]5F)cc4c3)cc12` [Example 12, (1S,2S)-2-fluoro-N-(5-(3-methyl-1H-pyrrolo[2,3-b]pyridin-5-yl)pyrazolo[1,5-a]pyridin-2-yl)cyclopropane-1-carboxamide], the concentration for half-maximal inhibition (IC50) in test [1] amounted to 2.5 nM; in test [2] it was 88.6 nM; in test [3], 687 nM.
Consider `Cc1c(-c2ccn3nc(NC(=O)C4CC4)cc3c2)cnc2[nH]ccc12` [Example 19, N-(5-(4-methyl-1H-pyrrolo[2,3-b]pyridin-5-yl)pyrazolo[1,5-a]pyridin-2-yl)cyclopropanecarboxamide], for which the IC50 in test [2] was found to be 11.4 nM; in test [4], 2.4 nM; in test [3] it was 82.9 nM.
Consider `Cc1c(-c2ccn3nc(NC(=O)[C@H]4C[C@H]4F)cc3c2)cnc2[nH]ccc12` [Example 20, (1R,2R)-2-fluoro-N-(5-(4-methyl-1H-pyrrolo[2,3-b]pyridin-5-yl)pyrazolo[1,5-a]pyridin-2-yl)cyclopropane-1-carboxamide], for which the figures for the IC50 in test [1], in test [2] and in test [3] were 3.1 nM, 8.37 nM and 65.5 nM, respectively.
On the same counts, the results for `Cc1c(-c2ccn3nc(NC(=O)[C@H]4C[C@@H]4F)cc3c2)cnc2[nH]ccc12` [Example 21, (1R,2S)-2-fluoro-N-(5-(4-methyl-1H-pyrrolo[2,3-b]pyridin-5-yl)pyrazolo[1,5-a]pyridin-2-yl)cyclopropane-1-carboxamide] are 3.3 nM, 8.25 nM and 61.4 nM.
The matching figures for `Cc1c(-c2ccn3nc(NC(=O)[C@@H]4C[C@H]4F)cc3c2)cnc2[nH]ccc12` [Example 22, (1S,2R)-2-fluoro-N-(5-(4-methyl-1H-pyrrolo[2,3-b]pyridin-5-yl)pyrazolo[1,5-a]pyridin-2-yl)cyclopropane-1-carboxamide]: 4.2 nM, 15.9 nM and 57.1 nM.
The matching figures for `Cc1c(-c2ccn3nc(NC(=O)[C@@H]4C[C@@H]4F)cc3c2)cnc2[nH]cc(F)c12` [Example 24, (1S,2S)-2-fluoro-N-(5-(3-fluoro-4-methyl-1H-pyrrolo[2,3-b]pyridin-5-yl)pyrazolo[1,5-a]pyridin-2-yl)cyclopropane-1-carboxamide]: 2.9 nM, 14.9 nM and 75.7 nM.
As to `O=C(Nc1cc2cc(-c3cnc4[nH]ccc4c3Cl)ccn2n1)[C@H]1C[C@@H]1F` [Example 27, (1R,2S)-N-(5-(4-chloro-1H-pyrrolo[2,3-b]pyridin-5-yl)pyrazolo[1,5-a]pyridin-2-yl)-2-fluorocyclopropane-1-carboxamide], the IC50 in test [1] was 12.4 nM; in test [2], 15.1 nM; in test [3], 162 nM.
On the same counts, the results for `O=C(Nc1cc2cc(-c3cnc4[nH]cc(Cl)c4c3Cl)ccn2n1)[C@@H]1C[C@@H]1F` [Example 29, (1S,2S)-N-(5-(3,4-dichloro-1H-pyrrolo[2,3-b]pyridin-5-yl)pyrazolo[1,5-a]pyridin-2-yl)-2-fluorocyclopropane-1-carboxamide] are 4.3 nM, 15.4 nM and 177 nM.
On the same counts, the results for `O=C(Nc1cc2cc(-c3cnc4[nH]cc(F)c4c3Cl)ccn2n1)[C@@H]1C[C@@H]1F` [Example 30, (1S,2S)-N-(5-(4-chloro-3-fluoro-1H-pyrrolo[2,3-b]pyridin-5-yl)pyrazolo[1,5-a]pyridin-2-yl)-2-fluorocyclopropane-1-carboxamide] are 7.2 nM, 10.2 nM and 107 nM.
